Test results as given in patent US4563467A, “Derivatives of N-iminopyridinium betaines having anti-hypertensive and salidiuretic activity and their preparation” (Provesan S.A., priority 1983, dated 1986).
Structures can show the parent of a compound that is named as a salt. Where two headings read alike, the source gives them in different places.

How the values were obtained:
[1] = Diuretic activity (method of Taylor and Topliss): elimination of urine and urine parameters over 8 hours; type: in vivo, Male Sprague-Dawley (HC/CFY) rats; details: rat; for ED50: po, from regression of log dose against percentage effect; for ED50 / Elimination of urine, 8 h: 8 h; for Elimination in the urine: Cl / Elimination in the urine: K / Elimination in the urine: Na / Osmotic pressure of urine / Urine pH / Elimination of urine, 1 h / Elimination of urine, 2 h / Elimination of urine, 3 h / Elimination of urine, 4 h / Elimination of urine, 6 h / Elimination of urine, 8 h: 40 mg/kg; for Elimination in the urine: Cl / Elimination in the urine: K / Elimination in the urine: Na / Osmotic pressure of urine / Urine pH: over 8 hours; for Elimination of urine, 1 h / Elimination of urine, 2 h / Elimination of urine, 3 h / Elimination of urine, 4 h / Elimination of urine, 6 h / Elimination of urine, 8 h: probang
Protocol: ACTIVITY Method of R. M. Taylor and […]. Med. Pharm. Chem. 1962, 4, 312 Male Sprague-Dawley (HC/CFY) rats weighting between 150 and 200 grams are used. The animals are kept without food and water for 16 hours before the start of the test. The products are administered as a suspension in a 0.5% strength carboxymethylcellulose suspension in a 0.9% strength sodium chloride solution, using a probang, the amount administered being 50 ml/kg of body weight. […] The following parameters are determined in the urine: volume (ml/kg); sodium and potassium (milliequivalents/kg/8 h) (flame photometer); chloride (milliequivalents/kg/8 h) (chloride-meter); pH/8 h (pH-meter) and osmotic pressure (osmotic millimols/kg/8 h) (osmometer). The comparsion animals are given the 0.5% strength carboxymethylcellulose suspension in a 0.9% strength sodium chloride solution in an amount of […] of body weight.

[2] = Acute toxicity, oral, mouse; type: in vivo, CFLP-RE albino mice
Protocol: The product is administered orally in suspension in 5% strength gum arabic to CFLP-RE albino mice weighing 20-25 g and to CFY-RE Sprague-Dawley rats weighing 125-175 g. The volume administered is 25 ml/kg in the mouse except for the maximum dose of 12,800 mg/kg where a volume of 50 ml/kg is administered, and 10 ml/kg in the rat except for the maximum dose of 12,800 mg/kg where a volume of 30 ml/kg is administered.
It was impossible to determine the 50 percent lethal dose since no deaths occurred.

[3] = read-out: ED50, osmotic pressure (m osmol/kg/8 h)
[4] = read-out: ED50, volume of urine (ml/kg/8 h)

SMILES	ED50 [1, 3]	ED50 [1, 4]	Elimination in the urine: Cl [1]	Elimination in the urine: K [1]	Elimination in the urine: Na [1]	Osmotic pressure of urine [1]	Urine pH [1]	Elimination of urine, 1 h [1]	Elimination of urine, 2 h [1]	Elimination of urine, 3 h [1]	Elimination of urine, 4 h [1]	Elimination of urine, 6 h [1]	Elimination of urine, 8 h [1]	Mortality ([2]; female, 400 mg/kg)	Mortality ([2]; female, 800 mg/kg)	Mortality ([2]; male, 400 mg/kg)	Mortality ([2]; male, 800 mg/kg)
NS(=O)(=O)c1cc(C2(O)NC(=O)c3ccccc32)ccc1Cl (stereo not shown) [Chlortalidone, reference compound]	7.7 mg/kg	6.9 mg/kg	10.8 milliequivalents/kg/8 h	1.9 milliequivalents/kg/8 h	9.3 milliequivalents/kg/8 h	29.9 osmotic millimols/kg/8 h	6.6	8.7 mL/kg	21.0 mL/kg	30.9 mL/kg	37.6 mL/kg	45.6 mL/kg	49.8 mL/kg	–	–	–	–
Cc1cc(C)[n+]([N-]C(=O)c2cc(S(N)(=O)=O)c(Cl)cc2NCc2ccco2)c(C)c1 [Example 5, 1-{[4-chloro-2-(2-furylmethylamino)-5-sulfamylbenzoyl]-amino}-2,4,6-trimethylpyridinium hydroxide inner salt]	–	–	6.2 milliequivalents/kg/8 h	1.3 milliequivalents/kg/8 h	3.0 milliequivalents/kg/8 h	16.6 osmotic millimols/kg/8 h	6.1	1.1 mL/kg	3.4 mL/kg	8.0 mL/kg	12.5 mL/kg	18.4 mL/kg	20.7 mL/kg	–	–	–	–
NC(=O)c1ccc[n+]([N-]C(=O)c2ccc(Cl)c(S(N)(=O)=O)c2)c1 [Example 4, 1-[(4-chloro-3-sulfamylbenzoyl)-amino]-3-carbamylpyridinium hydroxide inner salt]	–	–	7.0 milliequivalents/kg/8 h	1.1 milliequivalents/kg/8 h	6.6 milliequivalents/kg/8 h	20.8 osmotic millimols/kg/8 h	6.2	5.8 mL/kg	8.6 mL/kg	19.5 mL/kg	24.2 mL/kg	31.1 mL/kg	37.5 mL/kg	–	–	–	–
Cc1cc(C)[n+](NC(=O)c2cc(S(N)(=O)=O)c(Cl)cc2NCc2ccco2)c(C)c1.Cl.[Cl-] [Example 8, 1-{[4-chloro-2-(2-furylmethylamino)-5-sulfamylbenzoyl]-amino}-2,4,6-trimethylpyridinium chloride hydrochloride]	–	–	7.2 milliequivalents/kg/8 h	1.2 milliequivalents/kg/8 h	5.9 milliequivalents/kg/8 h	23.4 osmotic millimols/kg/8 h	6.7	0.0 mL/kg	11.9 mL/kg	19.6 mL/kg	28.5 mL/kg	34.4 mL/kg	39.2 mL/kg	–	–	–	–
Cc1cc(C)[n+]([N-]C(=O)c2ccc(Cl)c(S(N)(=O)=O)c2)c(C)c1 [Example 2, 1-[(4-chloro-3-sulfamylbenzoyl)-amino]-2,4,6-trimethylpyridinium hydroxide inner salt]	1.2 mg/kg	4.7 mg/kg	11.8 milliequivalents/kg/8 h	1.7 milliequivalents/kg/8 h	9.1 milliequivalents/kg/8 h	29.7 osmotic millimols/kg/8 h	6.0	10.4 mL/kg	22.3 mL/kg	30.2 mL/kg	36.0 mL/kg	41.5 mL/kg	45.6 mL/kg	0/4	0/4	0/4	0/4
NS(=O)(=O)c1cc(C(=O)N[n+]2c(-c3ccccc3)cc(-c3ccccc3)cc2-c2ccccc2)ccc1Cl.[Cl-] [Example 9, 1-[(4-chloro-3-sulfamylbenzoyl)-amino]-2,4,6-triphenylpyridinium chloride]	–	–	7.5 milliequivalents/kg/8 h	1.2 milliequivalents/kg/8 h	6.0 milliequivalents/kg/8 h	25.1 osmotic millimols/kg/8 h	6.2	5.2 mL/kg	12.6 mL/kg	16.8 mL/kg	19.0 mL/kg	21.5 mL/kg	25.3 mL/kg	–	–	–	–
Cc1cccc(C)[n+]1[N-]C(=O)c1ccc(Cl)c(S(N)(=O)=O)c1 [Example 3, 1-[(4-chloro-3-sulfamylbenzoyl)-amino]-2,6-dimethylpyridinium hydroxide inner salt]	2.1 mg/kg	4.6 mg/kg	11.7 milliequivalents/kg/8 h	1.8 milliequivalents/kg/8 h	9.5 milliequivalents/kg/8 h	34.2 osmotic millimols/kg/8 h	6.1	8.4 mL/kg	22.9 mL/kg	31.9 mL/kg	36.7 mL/kg	45.2 mL/kg	50.7 mL/kg	–	–	–	–
NS(=O)(=O)c1cc(C(=O)[N-][n+]2ccccc2)ccc1Cl [Example 1, 1-[(4-chloro-3-sulfamylbenzoyl)-amino]pyridinium hydroxide inner salt]	1.9 mg/kg	4.1 mg/kg	9.2 milliequivalents/kg/8 h	1.5 milliequivalents/kg/8 h	8.3 milliequivalents/kg/8 h	25.5 osmotic millimols/kg/8 h	6.6	7.3 mL/kg	15.2 mL/kg	27.6 mL/kg	35.4 mL/kg	40.5 mL/kg	44.5 mL/kg	–	–	–	–
Cc1cc(C)[n+](NC(=O)c2ccc(Cl)c(S(N)(=O)=O)c2)c(C)c1.[Cl-] [Example 7, 1-[(4-chloro-3-sulfamylbenzoyl)-amino]-2,4,6-trimethylpyridinium chloride]	–	–	9.3 milliequivalents/kg/8 h	1.6 milliequivalents/kg/8 h	–	31.0 osmotic millimols/kg/8 h	6.3	6.2 mL/kg	18.6 mL/kg	28.4 mL/kg	36.1 mL/kg	47.3 mL/kg	52.4 mL/kg	–	–	–	–
NS(=O)(=O)c1cc(C(=O)[N-][n+]2c(-c3ccccc3)cc(-c3ccccc3)cc2-c2ccccc2)ccc1Cl [Example 6, 1-[(4-chloro-3-sulfamylbenzoyl)-amino]2,4,6-triphenylpyridinium hydroxide inner salt]	–	–	8.1 milliequivalents/kg/8 h	1.1 milliequivalents/kg/8 h	6.6 milliequivalents/kg/8 h	25.3 osmotic millimols/kg/8 h	6.0	6.9 mL/kg	14.2 mL/kg	19.4 mL/kg	22.2 mL/kg	26.0 mL/kg	27.4 mL/kg	–	–	–	–
